Experimental findings from patent US9017730B2 (The Regents of the University of California, priority 2010, dated 2015) are described below.

The subject of series [1] is S. aureus 6538. Kind of series: rodent model of prevention of wound infection (subcutaneous polypropylene mesh). The note with it: solution.
Experimental: (§2) In this model, a mesh pre-soaked with phosphate buffered saline (PBS) or K180L20 was inserted subcutaneously into the dorsal cervical region of Sprague-Dawley rats, followed by 10^6 S. aureus or P. aeruginosa. Additional PBS or K180L20 was added, wounds closed, and animals returned to cages for 48 hr.
A further series relates to S. aureus. Put plainly: in vitro antimicrobial activity, incubated with bacteria for 30 min prior to plating for growth. It is filed as cell-based. On the procedure: (§1) K180L20 was incubated with bacteria for 30 min prior to plating for growth;
Another series deals with P. aeruginosa. The series is described as above. The format is cell-based. The method, then:
as §1

Another series relates to E. coli. The description is as above. The format is cell-based. The method, then:
as §1

In the next series the test system is S. epidermidis. The series is described as above. The note with it: FIG. 4. It is filed as cell-based. On the procedure: as §1
Series [2] can be described thus: critical aggregation concentration (CAC) via pyrene fluorescence. Particulars: in water. The format is physicochemical. The method, then: Polypeptide solutions (2 mL) were dispersed in water at a range of concentrations (2.0×10^−3 to 2.0×10^−12 M). A stock pyrene solution was made by dissolving pyrene in acetone (6.0×10^−2 M). Next, an appropriate amount of the pyrene stock solution was added to give a final concentration of 12×10^−7 M in water and the acetone was evaporated off. To each polypeptide solution, 2.0 mL of the aqueous stock pyrene solution was added to afford a final concentration of 6.0×10^−7 M. Then, each solution was allowed to equilibrate overnight prior to measurements. To record fluorescence spectra, 3.0 mL of each polypeptide solution was added to a 4.0 mL polystyrene covet. The excitation spectra were recorded within a range of 300-360 nm at an emission wavelength of 390 nm. All spectra were run with an integration time of 1 sec/0.5 nm. The ratio of the intensities of two peaks I338/I333 was plotted as a function of polypeptide concentration (M) for each sample. The CACs were determined as the intersection of the extrapolated linear fits of the plot.

Series [3] deals with P. aeruginosa (Clinical Pig Isolate). Put plainly: rodent model of prevention of wound infection (subcutaneous polypropylene mesh). The note with it: solution.
Experimental: as §2
The conditions of series [4]: pig, in vivo.
Series [5] concerns S. aureus 6538. Kind of series: porcine infection prevention open-wound model. The note with it: solution (10 mg/mL) applied prior to inoculation.
Experimental: Full-thickness 1 cm diameter wounds were made in the dorsal and lateral thorax of a 25-35 kg Yorkshire-cross pig. K180L20 hydrogel (or control buffer) was applied, and after four hr, wounds were inoculated with S. aureus. Wounds were assessed after 48 hr for bacterial counts by standard microbiology methods.
The nature of series [6]: inflammation by histology in rodent infection model. It is filed as in vivo, rats. The note with it: rodent open wounds, copolypeptide in solution, versus control treatments.
The conditions of series [7]: pig, in vivo. The source holds these as a separate data set.
In another series the test system is microbes. Put plainly: in vitro antimicrobial activity, organism not given. The format is cell-based. The note with it: neutral pH (~7).

Take “Poly(L-Lysine.HCl)55-b-poly(rac-Leucine)20 [K55(rac-L)20]”: the “reduction in bacterial population, S. aureus” value in the series on S. aureus 6538 [1] (20 μg/ml of copolypeptide) is 1-3 log. For the same substance, in the series on S. aureus 6538 [1] (2 mg/ml), the “reduction in bacterial population, S. aureus” value is “complete (or near complete) reduction”. For the same substance, the “reduction of bacteria, S. aureus” value with S. aureus (10 μg/ml) is on record as “reduction of bacteria”. Besides, the “antimicrobial activity against S. aureus” value with S. aureus (FIG. 4) is reported as “substantial antimicrobial activity”. Besides, the “reduction of bacteria, P. aeruginosa” value in the series on P. aeruginosa (10 μg/ml) is “reduction of bacteria”. The “antimicrobial activity against P. aeruginosa” value in the series with P. aeruginosa (FIG. 4) is recorded as “substantial antimicrobial activity”. Also, in the series with E. coli (10 μg/ml), the “reduction of bacteria, E. coli” value is listed as “reduction of bacteria”. The “antimicrobial activity against E. coli” value in the series on E. coli (FIG. 4) was “substantial antimicrobial activity”. Besides, the “antimicrobial activity against S. epidermidis” value with S. epidermidis was “substantial antimicrobial activity”. The “critical aggregation concentration (CAC)” value in [2] turned out to be 8.1 µM. Moreover, in [3] (20 μg/ml of copolypeptide), the “reduction in bacterial population, P. aeruginosa” value is given as 1-3 log. Moreover, in series [3] (2 mg/ml), the “reduction in bacterial population, P. aeruginosa” value is given as “complete (or near complete) reduction”. The “inflammation, necrosis, and epithelial coverage versus control-treated wounds” value in series [4] was “similar”. Besides, in the series with S. aureus 6538 [5], the “prevention of microbial infection, S. aureus” value is “fully prevented microbial infection”. For the same substance, the “inflammation, histopathological evidence” value in [6] is “at or below the level of control treatments”. Besides, in series [7], the “mononuclear inflammation, edema, or hemorrhage versus controls” value was “No differences”; the “neutrophilic inflammation, severity versus controls” value was “minimally less severe”; the “serocellular exudates, severity versus controls” value is “mildly”.
For “Poly(L-glutamate-Na)54-b-poly(rac-leucine)20 [E54(rac-L)20]”, the “antimicrobial activity at neutral pH” value in the series on microbes was “low antimicrobial activity”.
